Data reported in US9695178B2, “6-(2-pyridyl)-7,8-dihydro-5H-pyrido[4,3-D]pyrimidine analogs as hedgehog pathway signaling inhibitors and therapeutic applications thereof” (Suzhou Yunxuan Yiyao Keji Youxian Gongsi, priority 2013, dated 2017).

These compounds were tested against Smo (Homo sapiens, UniProt Q99835) (assay: Bodipy-Cyclopamine Binding Assay (confirmation assay), Hek293-SMO cells). Settings: not given.
Smo, sequence (Q99835 28-787): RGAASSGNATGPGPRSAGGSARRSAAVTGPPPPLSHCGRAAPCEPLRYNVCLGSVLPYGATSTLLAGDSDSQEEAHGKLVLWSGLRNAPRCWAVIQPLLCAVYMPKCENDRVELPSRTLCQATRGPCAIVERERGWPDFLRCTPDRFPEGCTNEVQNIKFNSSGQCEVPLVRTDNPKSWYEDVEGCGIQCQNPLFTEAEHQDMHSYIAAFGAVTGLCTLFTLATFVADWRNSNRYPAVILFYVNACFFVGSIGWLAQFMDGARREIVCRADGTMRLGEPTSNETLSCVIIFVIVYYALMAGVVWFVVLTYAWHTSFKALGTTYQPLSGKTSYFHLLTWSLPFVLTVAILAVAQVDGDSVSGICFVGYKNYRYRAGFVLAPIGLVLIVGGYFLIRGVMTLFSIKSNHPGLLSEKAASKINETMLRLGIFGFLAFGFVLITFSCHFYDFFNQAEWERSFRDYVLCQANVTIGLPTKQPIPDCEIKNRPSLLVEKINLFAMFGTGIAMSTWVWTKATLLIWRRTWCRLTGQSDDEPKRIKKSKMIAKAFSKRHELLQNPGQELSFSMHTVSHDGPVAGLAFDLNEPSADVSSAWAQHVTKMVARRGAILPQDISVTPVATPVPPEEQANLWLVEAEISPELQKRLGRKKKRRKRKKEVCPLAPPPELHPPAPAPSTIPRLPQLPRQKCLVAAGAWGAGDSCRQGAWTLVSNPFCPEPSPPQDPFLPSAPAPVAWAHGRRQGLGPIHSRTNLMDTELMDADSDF

SMILES	IC50
Cc1cnc(-c2cc(N3CCc4nc(N)sc4C3)ncc2Cl)c(C)c1 [Compound A-22, 5-(5′-chloro-3,5-dimethyl-2,4′-bipyridin-2′-yl)-4,5,6,7-tetrahydro-thiazolo-[5,4-c]pyridin-2-amine]	768 nM
CNc1ncc2c(n1)CCN(c1cc(-c3ncc(C)cc3C)c(Cl)cn1)C2 [Compound A-50, 6-(5′-chloro-3,5-dimethyl-2,4′-bipyridin-2′-yl)-N-methyl-5,6,7,8-tetrahydro-pyrido-[4,3-d]pyrimidin-2-amine]	232 nM
Cc1cnc(-c2cc(N3CCn4cc(C(=O)Nc5ccc(F)cc5)nc4C3)ncc2Cl)c(C)c1 [Compound A-21, 7-(5′-chloro-3,5-dimethyl-2,4′-bipyridin-2′-yl)-N-(4-fluorophenyl)-5,6,7,8-tetrahydro-imidazo-[1,2-a]pyrazine-2-carboxamide]	> 1000 nM
Cc1cnc(-c2cc(N3CCn4cc(C(=O)N5CC(C)NC(C)C5)nc4C3)ncc2Cl)c(C)c1 (stereo not drawn) [Compound A-7, (7-(5′-chloro-3,5-dimethyl-2,4′-bipyridin-2′-yl)-5,6,7,8-tetrahydro-imidazo-[1,2-a]pyrazin-2-yl)(3,5-dimethyl-piperazin-1-yl)methanone]	656 nM
Cc1cnc(-c2cc(N3CCc4nc(OC5CCC5)sc4C3)ncc2Cl)c(C)c1 [Compound A-47, 5-(5′-chloro-3,5-dimethyl-2,4′-bipyridin-2′-yl)-2-cyclobutoxy-4,5,6,7-tetrahydro-thiazolo-[5,4-c]pyridine]	88.3 nM
Cc1cnc(-c2cc(N3CCc4nc(NC(C)C)ncc4C3)ncc2Cl)c(C)c1 [Compound A-60, 6-(5′-chloro-3,5-dimethyl-2,4′-bipyridin-2′-yl)-N-isopropyl-5,6,7,8-tetrahydro-pyrido-[4,3-d]pyrimidin-2-amine]	18 nM
Cc1cnc(-c2cc(N3CCc4nc(NC(C)(C)C)ncc4C3)ncc2Cl)c(C)c1 [Compound A-61, N-tert-butyl-6-(5′-chloro-3,5-dimethyl-2,4′-bipyridin-2′-yl)-5,6,7,8-tetrahydro-pyrido-[4,3-d]pyrimidin-2-amine]	14.1 nM
Cc1cnc(-c2cc(N3CCc4nc(NC(=O)CCN5CCCCC5)sc4C3)ncc2Cl)c(C)c1 [Compound A-40, N-(5-(5′-chloro-3,5-dimethyl-2,4′-bipyridin-2′-yl)-4,5,6,7-tetrahydro-thiazolo-[5,4-c]pyridin-2-yl)-3-(piperidin-1-yl)propanamide]	151 nM
Cc1cnc(-c2cc(N3CCc4nc(N5CCC(O)CC5)ncc4C3)ncc2Cl)c(C)c1 [Compound A-55, 1-(6-(5′-chloro-3,5-dimethyl-2,4′-bipyridin-2′-yl)-5,6,7,8-tetrahydro-pyrido-[4,3-d]pyrimidin-2-yl)piperidin-4-ol]	5.1 nM
C=CC(=O)Nc1nc2c(s1)CN(c1cc(-c3ncc(C)cc3C)c(Cl)cn1)CC2 [Compound A-44, N-(5-(5′-chloro-3,5-dimethyl-2,4′-bipyridin-2′-yl)-4,5,6,7-tetrahydro-thiazolo-[5,4-c]pyridin-2-yl)acrylamide]	> 1000 nM
Cc1cnc(-c2cc(N3CCc4nc(N5CC(C)OC(C)C5)sc4C3)ncc2Cl)c(C)c1 (stereo not drawn) [Compound A-33, 4-(5-(5′-chloro-3,5-dimethyl-2,4′-bipyridin-2′-yl)-4,5,6,7-tetrahydro-thiazolo-[5,4-c]pyridin-2-yl)-2,6-dimethyl-morpholine]	447 nM
Cc1cnc(-c2cc(N3CCc4nc(NC(=O)C5CC5)sc4C3)ncc2Cl)c(C)c1 [Compound A-26, N-(5-(5′-chloro-3,5-dimethyl-2,4′-bipyridin-2′-yl)-4,5,6,7-tetrahydro-thiazolo-[5,4-c]pyridin-2-yl)cyclo-propane carboxamide]	71 nM

Other lines, results leading:

IC50	SMILES
85.1 nM	Cc1cnc(-c2cc(N3CCc4nc(N5CCC(O)C5)ncc4C3)ncc2Cl)c(C)c1 (stereo not drawn) [Compound A-66, 1-(6-(5′-chloro-3,5-dimethyl-2,4′-bipyridin-2′-yl)-5,6,7,8-tetrahydro-pyrido-[4,3-d]pyrim-idin-2-yl)pyrrolidin-3-ol]
500 nM	Cc1cnc(-c2cc(N3CCc4nc(S(C)(=O)=O)ncc4C3)ncc2Cl)c(C)c1 [Compound A-64, 6-(5′-chloro-3,5-dimethyl-2,4′-bipyridin-2′-yl)-2-(methyl-sulfonyl)-5,6,7,8-tetrahydro-pyrido-[4,3-d]pyrim-idine]
84.1 nM	Cc1cnc(-c2cc(N3CCc4nc(N5CCC(O)CC5)ncc4C3=O)ncc2Cl)c(C)c1 [Compound A-97, 6-(5′-chloro-3,5-dimethyl-2,4′-bipyridin-2′-yl)-2-(4-hydroxypiperidin-1-yl)-7,8-dihydro-pyrido[4,3-d]pyrimidin-5(6H)-one]
51.1 nM	Cc1cnc(-c2cc(N3CCc4nc(Nc5ccccc5)ncc4C3)ncc2Cl)c(C)c1 [Compound A-62, 6-(5′-chloro-3,5-dimethyl-2,4′-bipyridin-2′-yl)-N-phenyl-5,6,7,8-tetrahydro-pyrido-[4,3-d]pyrimidin-2-amine]
169 nM	Clc1cnc(N2CCc3nc(NC4CC4)ncc3C2)cc1-c1nccs1 [Compound A-117, 6-(5-chloro-4-(thiazol-2-yl)pyridin-2-yl)-N-cyclopropyl-5,6,7,8-tetrahydropyrido[4,3-d]pyrimidin-2-amine]
283 nM	Cc1cnc(-c2cc(N3CCc4nc(N5CC(O)C5)ncc4C3)ncc2Cl)c(C)c1 [Compound A-72, 1-(6-(5′-chloro-3,5-dimethyl-2,4′-bipyridin-2′-yl)-5,6,7,8-tetrahydro-pyrido-[4,3-d]pyrimidin-2-yl)azetidin-3-ol]
> 1000 nM	Cc1ccc(-c2cc(N3CCc4nc(NC5CC5)ncc4C3)ncc2Cl)nc1 [Compound A-110, 6-(5′-chloro-5-methyl-2,4′-bipyridin-2′-yl)-N-cyclopropyl-5,6,7,8-tetrahydropyrido-[4,3-d]pyrimidin-2-amine]
470 nM	Clc1cnc(N2CCc3nc(NC4CC4)ncc3C2)cc1-c1ccccn1 [Compound A-113, 6-(5′-chloro-2,4′-bipyridin-2′-yl)-N-cyclopropyl-5,6,7,8-tetrahydropyrido-[4,3-d]pyrimidin-2-amine]
167 nM	Cc1cnc(-c2cc(N3Cc4cnc(N5CCCC5)nc4C(C)(C)C3)ncc2Cl)c(C)c1 [Compound A-81, 6-(5′-chloro-3,5-dimethyl-2,4′-bipyridin-2′-yl)-8,8-dimethyl-2-(pyrrolidin-1-yl)-5,6,7,8-tetrahydro-pyrido-[4,3-d]pyrimidine]
113 nM	Clc1cnc(N2CCc3nc(NC4CC4)ncc3C2)cc1-c1ccc2ccccc2n1 [Compound A-112, 6-(5-chloro-4-(quinolin-2-yl)pyridin-2-yl)-N-cyclopropyl-5,6,7,8-tetrahydropyrido-[4,3-d]pyrimidin-2-amine]
> 1000 nM	CCNC(=O)Nc1ncc2c(n1)CCN(c1cc(-c3ncc(C)cc3C)c(Cl)cn1)C2 [Compound A-91, 1-(6-(5′-chloro-3,5-dimethyl-2,4′-bipyridin-2′-yl)-5,6,7,8-tetrahydropyrido-[4,3-d]pyrimidin-2-yl)-3-ethylurea]

Same assay, conditions: Smo IC50 (nM), confirmation assay; competition with 100 nM bodipy-cyclopamine, Hek293-SMO cells

IC50	SMILES
311 nM	Cc1cnc(-c2cc(N3CCn4cc(C(=O)Nc5ccccc5)nc4C3)ncc2Cl)c(C)c1 [Compound A-19, 7-(5′-chloro-3,5-dimethyl-2,4′-bipyridin-2′-yl)-N-phenyl-5,6,7,8-tetrahydro-imidazo-[1,2-a]pyrazine-2-carboxamide]
